These results are taken from patent publication US20150352108A1, “AMINO-PYRIMIDINE COMPOUNDS AS INHIBITORS OF TBK1 AND/OR IKK EPSILON” (Alzheimer's Institute of America, priority 2009, published 2015).

Assay [1] has as its target T1, TBK1 (Homo sapiens, UniProt Q9UHD2).
T1 construct: His-tag; made in house; host or cells: Sf9 insect cells
T1 sequence (Q9UHD2 1-729): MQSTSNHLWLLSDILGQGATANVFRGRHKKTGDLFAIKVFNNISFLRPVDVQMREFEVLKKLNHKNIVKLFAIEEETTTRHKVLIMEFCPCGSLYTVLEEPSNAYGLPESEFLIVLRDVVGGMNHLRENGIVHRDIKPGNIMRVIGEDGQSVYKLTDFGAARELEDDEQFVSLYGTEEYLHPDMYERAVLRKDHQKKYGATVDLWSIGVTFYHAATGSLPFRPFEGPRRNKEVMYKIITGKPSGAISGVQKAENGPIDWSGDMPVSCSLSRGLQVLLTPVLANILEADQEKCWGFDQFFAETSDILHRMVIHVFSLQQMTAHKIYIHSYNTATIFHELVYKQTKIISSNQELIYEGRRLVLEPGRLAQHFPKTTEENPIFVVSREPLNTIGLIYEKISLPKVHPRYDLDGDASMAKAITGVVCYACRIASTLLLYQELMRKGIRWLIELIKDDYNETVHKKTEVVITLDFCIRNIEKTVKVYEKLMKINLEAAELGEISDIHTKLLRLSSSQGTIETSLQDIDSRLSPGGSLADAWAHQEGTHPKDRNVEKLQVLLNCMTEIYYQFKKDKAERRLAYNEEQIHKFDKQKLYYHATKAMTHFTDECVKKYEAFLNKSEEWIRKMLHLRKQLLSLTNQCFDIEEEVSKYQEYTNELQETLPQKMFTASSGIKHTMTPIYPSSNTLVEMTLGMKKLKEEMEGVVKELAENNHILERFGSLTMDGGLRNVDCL
In words: In-vitro TBK1 kinase assay ([γ33]ATP filter-plate). The assay is classed as biochemical. Conditions: text bins; read-out: IC50 for inhibition of the kinase activity of TBK1. How it is done:
IKKε enzyme was produced as a His-tag fusion in Sf9 cells and used at a final concentration of […]. TBK1 enzyme was produced as a His-tag fusion in Sf9 cells and used at a final concentration of 0.1 μg/ml. Kinase reactions were carried out in reaction buffer using myelin basic protein (Millipore, Ballerica, Mass.) or casein (Sigma, St. Louis, Mo.) as substrate at an ATP concentration equal to twice the Km,ATP value for each enzyme, corresponding to 32 μM ATP for IKKε and 60 μM ATP for TBK1, in the presence of 0.3 μCi [γ^33]ATP (PerkinElmer, Waltham, Mass.). Final enzyme concentrations were 0.1 or 0.015 μg/ml (IKKε) and 0.1 or 0.02 μg/ml (TBK1), representing “normal” and “sensitized” assay conditions respectively. Test compounds (or DMSO solvent as a control) were added prior to initiation of the reactions. Reactions were terminated after 30-45 minutes by adding 3% phosphoric acid. Terminated reactions were transferred to P-81 cellulose phosphate filterplates (Whatman, Inc., Piscataway, N.J.) and washed with 1% phosphoric acid on a vacuum apparatus. After air drying, scintillant (PerkinElmer, Waltham, Mass.) was added and the plates were read on a PerkinElmer TopCount NXT instrument. Counts were normalized to DMSO controls after background subtraction.

For assay [2], the target named is T2, IKKε (Homo sapiens, UniProt Q14164).
T2 construct: His-tag; made in house; host or cells: Sf9 insect cells
T2 sequence (Q14164 1-716): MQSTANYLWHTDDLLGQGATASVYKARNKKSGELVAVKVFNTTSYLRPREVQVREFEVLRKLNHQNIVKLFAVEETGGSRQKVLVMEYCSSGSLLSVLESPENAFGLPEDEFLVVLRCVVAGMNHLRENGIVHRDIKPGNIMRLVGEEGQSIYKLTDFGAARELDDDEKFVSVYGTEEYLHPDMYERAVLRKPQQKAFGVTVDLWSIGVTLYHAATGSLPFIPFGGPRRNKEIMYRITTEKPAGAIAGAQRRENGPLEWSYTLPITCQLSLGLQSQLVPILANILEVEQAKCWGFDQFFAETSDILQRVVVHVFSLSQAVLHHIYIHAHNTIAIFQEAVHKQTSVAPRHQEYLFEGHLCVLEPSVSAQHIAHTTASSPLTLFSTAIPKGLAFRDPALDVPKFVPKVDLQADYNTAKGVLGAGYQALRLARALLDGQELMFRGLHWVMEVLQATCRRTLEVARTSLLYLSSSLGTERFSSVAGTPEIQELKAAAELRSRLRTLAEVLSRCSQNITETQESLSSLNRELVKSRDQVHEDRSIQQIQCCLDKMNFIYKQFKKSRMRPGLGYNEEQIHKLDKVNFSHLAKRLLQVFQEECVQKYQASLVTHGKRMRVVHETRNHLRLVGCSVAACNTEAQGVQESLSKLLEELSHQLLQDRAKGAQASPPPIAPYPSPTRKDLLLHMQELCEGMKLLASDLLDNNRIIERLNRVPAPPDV
In words: In-vitro IKKε kinase assay ([γ33]ATP filter-plate). The assay is classed as biochemical. The settings on record: text bins; read-out: IC50 for inhibition of the kinase activity of IKKε. Put shortly:
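His-tagged Sf9-expressed kinases at 0.1 or 0.02 μg/ml (TBK1) and 0.1 or 0.015 μg/ml (IKKε) for normal and sensitized formats, with myelin basic protein or casein substrate. ATP was at 2×Km (60 μM TBK1, 32 μM IKKε) plus 0.3 μCi [γ33]ATP. Reactions ran 30-45 min, were captured on P-81 filters, and counts were normalized to DMSO.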

For orientation: IC50 means the concentration needed to halve the response being measured. Consider `COc1cc(Nc2nccc(-c3ccc(NC(=O)C(C)C)c(C#N)c3)n2)ccc1N1CCNC(=O)C1` [Example 88, N-[2-Cyano-4-(2-{[3-methoxy-4-(3-oxopiperazin-1-yl)phenyl]amino}pyrimidin-4-yl)phenyl]-2-methylpropanamide], for which the figures for the IC50 in assay [1] and in assay [2] were less than 10 nM and less than 5 nM, respectively.
For `CN1CCN(c2ccc(Nc3nccc(-c4ccc(OC5CCNC5)c(C#N)c4)n3)cc2)CC1` (centres unmarked) [Example 90, 5-(2-{[4-(4-methylpiperazin-1-yl)phenyl]amino}pyrimidin-4-yl)-2-(pyrrolidin-3-yloxy)benzonitrile] the same measures were 10 to 100 nM and 5 to 50 nM.
Take `N#Cc1cc(-c2ccnc(Nc3ccc(N4CCOCC4)cc3)n2)ccc1NC(=O)C1CC1` [Example 91, N-[2-cyano-4-(2-{[4-(morpholin-4-yl)phenyl]amino}pyrimidin-4-yl)phenyl] cyclopropane-carboxamide]: the 50% inhibitory concentration (IC50) in assay [1] was less than 10 nM; in assay [2], less than 5 nM.
For `N#Cc1cc(-c2ccnc(Nc3ccc(N4CCOCC4)cc3)n2)ccc1OCC1CCCNC1` (centres unmarked) [Example 94] the same measures were 10 to 100 nM and 5 to 50 nM.
For `N#Cc1cc(-c2ccnc(Nc3ccc(N4CCOCC4)cc3)n2)ccc1OC1CCN(C(=O)CO)C1` (centres unmarked) [Example 96, 2-{[1-(Hydroxyacetyl)pyrrolidin-3-yl]oxy}-5-(2-{[4-(morpholin-4-yl)phenyl]amino}pyrimidin-4-yl)benzonitrile] the same measures were less than 10 nM and less than 5 nM.
Consider `COc1ccc(-c2ccnc(Nc3ccc(N4CCOCC4)c(Cl)c3)n2)cc1C#N` [Example 98], for which the half-inhibitory concentration (IC50) in assay [1] was less than 10 nM; in assay [2] it was less than 5 nM.
For `CS(=O)(=O)N1CCN(c2ccc(Nc3nccc(-c4ccc(OC5CCOCC5)c(C#N)c4)n3)cc2)CC1` [Example 100, 5-[2-({4-[4-(methylsulfonyl)piperazin-1-yl]phenyl}amino)pyrimidin-4-yl]-2-(tetrahydro-2H-pyran-4-yloxy)benzonitrile] the same measures were less than 10 nM and less than 5 nM.
For `COc1ccc(-c2ccnc(Nc3ccc(N4CCCNC(=O)C4)c(OC)c3)n2)cc1C#N` [Example 104, 2-Methoxy-5-(2-{[3-methoxy-4-(3-oxo-1,4-diazepan-1-yl)phenyl]amino}pyrimidin-4-yl)benzonitrile] the same measures were less than 10 nM and less than 5 nM.
For `COc1cc(Nc2nccc(-c3ccc(OC4CCN(C(=O)[C@H](C)O)CC4)c(C#N)c3)n2)ccc1OCCOCCN` [Example 105, 5-[2-({4-[2-(2-aminoethoxy)ethoxy]-3-methoxyphenyl}amino)pyrimidin-4-yl]-2-({1-[(2S)-2-hydroxypropanoyl]piperidin-4-yl}oxy)benzonitrile], the 50% inhibitory concentration (IC50) in assay [1] fell in the range of 10 to 100 nM; in assay [2] it was 5 to 50 nM.
For the compound `CNc1ccc(-c2ccnc(Nc3ccc(OC)c(OC)c3)n2)cc1C#N` [Example 107, 5-{2-[(3,4-Dimethoxyphenyl)amino]pyrimidin-4-yl}-2-(methylamino) benzonitrile], the IC50 was less than 10 nM in assay [1] and less than 5 nM in assay [2].
The like results for `COc1ccc(-c2ccnc(Nc3cc(CN4CCNC(=O)C4)c(OC)c(OC)c3)n2)cc1C#N` [Example 110, 5-[2-({3,4-Dimethoxy-5-[(3-oxopiperazin-1-yl)methyl]phenyl}amino)pyrimidin-4-yl]-2-methoxybenzonitrile] were, in that order, less than 10 nM and 5 to 50 nM.
For `COc1ccc(Nc2nccc(-c3ccc(OC(C)C)c(C#N)c3)n2)cc1OC` [Example 111, 5-{2-[(3,4-Dimethoxyphenyl)amino]pyrimidin-4-yl}-2-(propan-2-yloxy)benzonitrile] the same measures were less than 10 nM and less than 5 nM.
For `COc1ccc(-c2ccnc(Nc3cc(CN(C)CC(=O)N(C)C)c(OC)c(OC)c3)n2)cc1C#N` [Example 115, N~2~-(5-{[4-(3-Cyano-4-methoxyphenyl)pyrimidin-2-yl]amino}-2,3-dimethoxybenzyl)-N,N,N~2~- trimethylglycinamide] the same measures were 10 to 100 nM and less than 5 nM.
As to `COc1cc(Nc2nccc(-c3ccc(OC4CCN(C(=O)[C@H](C)O)C4)c(C#N)c3)n2)ccc1N1CCOCC1` (stereo partly drawn) [Example 116, 2-({1-[(2S)-2-hydroxypropanoyl]pyrrolidin-3-yl}oxy)-5-(2-{[3-methoxy-4-(morpholin-4-yl)phenyl]amino}pyrimidin-4-yl)benzonitrile], the values for the IC50 in assay [1] and in assay [2] were less than 10 nM and 5 to 50 nM, respectively.
The like results for `CC(=O)Nc1ccc(-c2ccnc(Nc3ccc(N4CCOCC4)cc3)n2)cc1C#N` [Example 117, N-[2-Cyano-4-(2-{[4-(morpholin-4-yl)phenyl]amino}pyrimidin-4-yl)phenyl]acetamide] were, in that order, 10 to 100 nM and 5 to 50 nM.
Regarding `COc1ccc(Nc2nccc(-c3ccc(O)c(C#N)c3)n2)cc1OC` [Example 118], the results for the IC50 in assay [1] and in assay [2] were less than 10 nM and less than 5 nM, respectively.
Take `CCN1CCN(c2ccc(-c3ccnc(Nc4ccc(N5CCOCC5)cc4)n3)cc2C#N)CC1` [Example 123, 2-(4-Ethylpiperazin-1-yl)-5-(2-{[4-(morpholin-4-yl)phenyl]amino}pyrimidin-4-yl)benzonitrile]: the values for the IC50 in assay [1] and in assay [2] were 10 to 100 nM and 5 to 50 nM, respectively.
The like results for `COc1ccc(-c2ccnc(Nc3ccc(N4CCN(C)C(=O)C4)c(OC)c3)n2)cc1C#N` [Example 124] were, in that order, less than 10 nM and less than 5 nM.
For `Cc1nnsc1C(=O)Nc1ccc(-c2ccnc(Nc3ccc(N4CCOCC4)cc3)n2)cc1C#N` [Example 129, N-[2-cyano-4-(2-{[4-(morpholin-4-yl)phenyl]amino}pyrimidin-4-yl)phenyl]-4-methyl-1,2,3-thiadiazol-5-carboxamide] the same measures were less than 10 nM and less than 5 nM.
For `N#Cc1cc(-c2ccnc(Nc3ccc(N4CCOCC4)cc3)n2)ccc1O` [Example 130, 2-Hydroxy-5-(2-{[4-(morpholin-4-yl)phenyl]amino}pyrimidin-4-yl)benzonitrile] the same measures were less than 10 nM and less than 5 nM.
With `COc1cc(Nc2nccc(-c3ccc(OC4CCN(C(C)=O)CC4)c(C#N)c3)n2)ccc1N1CCNC(=O)C1` [Example 134, 2-[(1-Acetylpiperidin-4-yl)oxy]-5-(2-{[3-methoxy-4-(3-oxopiperazin-1-yl)phenyl]amino}pyrimidin-4-yl)benzonitrile], the IC50 is less than 10 nM in assay [1] and less than 5 nM in assay [2].
The like results for `COc1ccc(Nc2nccc(-c3ccc(NC(C)=O)c(C#N)c3)n2)cc1OC` [Example 136, N-(2-Cyano-4-{2-[(3,4-dimethoxyphenyl)amino]pyrimidin-4-yl}phenyl)acetamide] were, in that order, 10 to 100 nM and 5 to 50 nM.
